# ChEMBL document CHEMBL4152305, “Studies on 2-phenylquinoline Staphylococcus aureus NorA efflux pump inhibitors: New insights on the C-6 position” (Eur J Med Chem, 2018)
# pIC50: −log10 of the molar value. Active and inactive are the calls of the source. The rule behind the calls is not given here.
# What was measured:
# [1] = target: T1, Quinolone resistance protein NorA (Staphylococcus aureus, UniProt P0A0J7); assay: Inhibition of Staphylococcus aureus SA-1199B NorA assessed as reduction in EtBr efflux measured over 5 mins by fluorescence assay
# T1 sequence (P0A0J7 whole entry): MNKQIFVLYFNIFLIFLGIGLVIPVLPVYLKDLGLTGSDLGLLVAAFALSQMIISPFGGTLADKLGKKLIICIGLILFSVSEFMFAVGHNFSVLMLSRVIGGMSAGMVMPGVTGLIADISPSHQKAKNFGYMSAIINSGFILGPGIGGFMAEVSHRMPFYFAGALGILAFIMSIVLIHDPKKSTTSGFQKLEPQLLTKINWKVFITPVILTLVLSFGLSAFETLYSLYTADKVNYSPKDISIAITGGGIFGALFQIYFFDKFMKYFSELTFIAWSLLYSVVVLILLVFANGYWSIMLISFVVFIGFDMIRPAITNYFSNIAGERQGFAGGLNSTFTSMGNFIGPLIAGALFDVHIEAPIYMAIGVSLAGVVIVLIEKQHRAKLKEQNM
# [2] = test system: Staphylococcus aureus; assay: Growth inhibition of Staphylococcus aureus ATCC 25923 by microdilution method; type: organism-based; details: in vivo
# [3] = test system: Staphylococcus aureus; assay: Growth inhibition of Staphylococcus aureus SA-1199B expressing wild type norA and co-expressing GrlA A116E mutant by microdilution method; type: organism-based; details: in vivo
# [4] = test system: Staphylococcus aureus; assay: Growth inhibition of Staphylococcus aureus ATCC 25923 up to 100 ug/ml in presence of ciprofloxacin by checkerboard assay; type: organism-based; details: in vivo
# [5] = test system: Staphylococcus aureus; assay: Growth inhibition of Staphylococcus aureus SA-1199 expressing wild type norA by microdilution method; type: organism-based; details: in vivo
# [6] = target: T2, Quinolone resistance protein NorA (Staphylococcus aureus) (UniProt P0A0J7); assay: Potency index, ratio of reserpine IC50 to test compound IC50 for Staphylococcus aureus SA-1199B NorA assessed as reduction in EtBr efflux
# T2 sequence (whole entry): T1 sequence (P0A0J7 whole entry)
# [7] = target: T2, Quinolone resistance protein NorA (Staphylococcus aureus); assay: Inhibition of Staphylococcus aureus SA-1199 norA assessed as potentiation of ciprofloxacin-induced antibacterial activity up to 100 ug/ml by checkerboard method
# [8] = target: T2, Quinolone resistance protein NorA (Staphylococcus aureus); assay: Inhibition of Staphylococcus aureus SA-1199B NorA assessed as potentiation of ciprofloxacin-induced antibacterial activity by measuring minimum potetntiation concentration causing 4 fold reduction in ciprofloxacin MIC by ciprofloxacin assay
# [9] = target: T2, Quinolone resistance protein NorA (Staphylococcus aureus); assay: Inhibition of Staphylococcus aureus SA-1199B NorA assessed as reduction in EtBr efflux at 50 uM measured over 5 mins by fluorescence assay relative to control
# [10] = Selectivity index, ratio of CC50 for human HepG2 cells to compound effect for inhibition of Staphylococcus aureus SA-1199B NorA assessed as potentiation of ciprofloxacin-induced antibacterial activity by measuring minimum potetntiation concentration causing 4 fold reduction in ciprofloxacin MIC; type: toxicity; details: read-out: Selectivity Index
# [11] = Cytotoxicity against human HepG2 cells assessed as reduction in cell number after 24 hrs by bioluminescence assay; type: cell-based
SMILES,pIC50 [1],MIC [2],MIC [3],growth inhibition (GI) [4],MIC [5],Ratio IC50 [6],Activity [7],Activity [8],inhibition [9],selectivity ratio [10],CC50 at 24 h [11]
CCCOc1ccc(-c2cc(OCCN3CCCCC3)c3cc(OCCN(CC)CC)ccc3n2)cc1,5.28,100 µg/mL,197.7 µM,Non-Toxic,100 µg/mL,2,inactive,25 µg/mL,91.4%,,
CCCOc1ccc(-c2cc(OCCN(CC)CC)c3cc(OCCN4CCCCC4)ccc3n2)cc1,,Nd(Insoluble),,Non-Toxic,Nd(Insoluble),,inactive,,,,
CCCOc1ccc(-c2cc(OCCN3CCCCC3)c3ccccc3n2)cc1,5.14,,,,,,,1.56 µg/mL,,24.9,38.9 µg/mL
COC(=O)[C@H]1[C@H]2C[C@@H]3c4[nH]c5cc(OC)ccc5c4CCN3C[C@H]2C[C@@H](OC(=O)c2cc(OC)c(OC)c(OC)c2)[C@@H]1OC [RESERPINE],5.04,> 100 µg/mL,> 164 µM,,> 100 µg/mL,,,1.56 µg/mL,,,
CCCOc1ccc(-c2cc(OCCN(CC)CC)c3cc(OCCN(CC)CC)ccc3n2)cc1,4.97,100 µg/mL,> 202.6 µM,Non-Toxic,> 100 µg/mL,,inactive,,81.4%,,
CCCOc1ccc(-c2cc(OCCN3CCCCC3)c3cc(OCCCN4CCOCC4)ccc3n2)cc1,5.36,100 µg/mL,93.7 µM,Non-Toxic,50 µg/mL,2,inactive,6.25 µg/mL,93.2%,,
CCCOc1ccc(-c2cc(OCCN3CCCCC3)c3cc(O)ccc3n2)cc1,5.48,25 µg/mL,61.5 µM,Non-Toxic,25 µg/mL,2,inactive,6.25 µg/mL,87%,,
CCCOc1ccc(-c2cc(OCCN(CC)CC)c3ccccc3n2)cc1,5.05,,,,,,,6.25 µg/mL,,3.5,21.6 µg/mL
CCCOc1ccc(-c2cc(OCCN3CCCCC3)c3cc(OCCCN(C)C)ccc3n2)cc1,5.14,100 µg/mL,203.4 µM,Non-Toxic,100 µg/mL,,inactive,6.25 µg/mL,92.5%,,
CCCOc1ccc(-c2cc(OCCN3CCCCC3)c3cc(OCc4ccccc4)ccc3n2)cc1,,100 µg/mL,,Non-Toxic,100 µg/mL,2,inactive,0.78 µg/mL,76.3%,43.4,33.8 µg/mL
CCCOc1ccc(-c2cc(OCCN(CC)CC)c3cc(OCCCN4CCOCC4)ccc3n2)cc1,5.30,100 µg/mL,> 191.7 µM,Non-Toxic,> 100 µg/mL,2,inactive,12.5 µg/mL,91.1%,,
CCCOc1ccc(-c2cc(OCCN(CC)CC)c3cc(O)ccc3n2)cc1,5.24,50 µg/mL,126.7 µM,Non-Toxic,50 µg/mL,2,inactive,1.56 µg/mL,95%,,
O=C(O)c1cn(C2CC2)c2cc(N3CCNCC3)c(F)cc2c1=O [CIPROFLOXACIN],,0.63 µg/mL,10 µg/mL,,0.63 µg/mL,,,,,,
CCCOc1ccc(-c2cc(OCCN3CCCCC3)c3cc(OCCN4CCCCC4)ccc3n2)cc1,,Nd(Insoluble),,Non-Toxic,Nd(Insoluble),,inactive,,,,
CCCOc1ccc(-c2cc(OCCN(CC)CC)c3cc(OCCCN(C)C)ccc3n2)cc1,5.06,100 µg/mL,> 208.5 µM,Non-Toxic,> 100 µg/mL,,inactive,,80.9%,,
CCCOc1ccc(-c2cc(OCCN(CC)CC)c3cc(OCc4ccccc4)ccc3n2)cc1,,> 100 µg/mL,,Non-Toxic,> 100 µg/mL,2,inactive,0.78 µg/mL,91.1%,15.7,12.3 µg/mL
